Molecules are shown by their SMILES. “Also recorded” adds a separate entry of the source.

One data set relates to IFNI pathway. Kind of data set: IFNI pathway activation: IFNI gene signature in peripheral blood and plasma CXCL-10 (IP-10). It is filed as in vivo, human. On the procedure: Blood samples for subasumstat–SUMO adduct formation and SUMO2/3 inhibition assessments were collected before dose and at 1, 4, and 8 hours after the infusion on C1D1 and C1D8. Blood samples for additional biomarker analyses were collected before dose on C1D1 and C1D8 and at 4, 8, and 24 hours after infusion on C1D1 and C1D8. Skin biopsies (used as surrogate tissue for solid tumors) were collected at screening and on C1D8 at 2 hours (±30 minutes) after end of infusion, and tumor biopsies were collected at screening and cycle 2 day 8 (C2D8; +7 days; whenever possible). In blood samples, a custom flow cytometry assay was utilized for detecting target engagement and SUMOylated protein levels in lymphocytes (including T-, B-, and NK-cell subsets). The assay included a PE-conjugated antibody specifically recognizing the SUMO–subasumstat adduct (MIL-113, anti–cysteinyl-TAK-981, Epitomics; refs. [14], [15], [22]) and an AF488-conjugated antibody recognizing SUMO2/3 conjugates (MBL International, cat. #M114-3, RRID: AB_592769). Peripheral blood cells were lysed/fixed, permeabilized (BD Biosciences), and stained with MIL-113 and M114-3 and with antibodies against CD45, CD3, CD19, CD16/CD56, and CD14. […] Activation of the IFNI pathway was assessed in peripheral blood by analysis of gene expression data (PanCancer IO 360 panel by NanoString for phase I and whole-transcriptome RNA sequencing data for phase II). […] These seven IFNI-regulated genes were selected prior to the trial, based on in vitro studies of the effect of subasumstat on human blood from 10 healthy donors analyzed on the NanoString PanCancer IO 360 panel. Plasma chemokines and cytokines were measured using the MesoScale Discovery platform (pro-inflammatory and chemokine panels, BioAgilytix). […] Tumor PD-L1 expression level was assessed in paired tumor biopsies using the 22C3 PD-L1 IHC assay; combined positive score (CPS) was calculated for baseline and on-treatment tumor samples. The immune landscape in the tumor microenvironment (TME) was assessed using an integrated RNAscope and 27-marker MultiOmyx immunofluorescence panel.

Data set [1] in a line: Dose-limiting toxicities in cycle 1 and determination of MTD/RP2D (phase I dose escalation). The data set is classed as in vivo. The note with it: for n with DLTs during cycle 1: N = 6. The procedure:
This study comprised two parts: a phase I dose escalation and a phase II dose expansion (Fig. 1). In the dose-escalation phase, patients were enrolled to receive subasumstat intravenously as a 1-hour (±10 minutes) infusion on days 1, 4, 8, and 11 of a 21-day cycle (biweekly schedule). […] Dose escalation was based on cohort with an adaptive design using Bayesian logistic regression modeling with overdose control. The starting dose of subasumstat was based on Good Laboratory Practice animal toxicity studies and supported by the estimation of a minimum anticipated biologically effective level. A detailed description of dose-limiting toxicities (DLT) is presented in the Supplementary Methods.
The occurrence of DLTs was assessed during cycle 1 (DLTs are described in the Supplementary Methods). Treatment-emergent adverse events (TEAE) were graded according to NCI Common Terminology Criteria for Adverse Events version 5.0, except for cytokine release syndrome (CRS), which was graded according to the American Society for Transplantation and Cellular Therapy Consensus Grading for CRS ([20]).
It was anticipated that approximately 70 DLT-evaluable patients would be enrolled for dose escalation. The safety analysis set included all patients who received at least one dose, even if incomplete, of subasumstat. […] The overall response rate (ORR) was defined as the proportion of patients who achieved complete response and partial response (PR) during the study. The disease control rate (DCR) was defined as the proportion of patients who achieved […] as per RECIST v1.1 for solid tumors or Lugano classification for lymphomas. […] Progression-free survival was summarized descriptively using the Kaplan–Meier method.
17. History of allogeneic tissue or solid organ transplant.
18. Second malignancy within the previous 3 years, except treated basal cell or localized squamous skin carcinomas, localized prostate cancer, cervical carcinoma in situ, resected colorectal adenomatous polyps, breast cancer in situ, or other malignancy for which the patient is not on active anticancer therapy.
19. Female patients who are lactating and breastfeeding or have a positive serum pregnancy test during the screening period or a positive urine pregnancy test on day 1 before first dose of study drug.
Definition of dose-limiting toxicities (DLTs) for phase I only
DLTs were defined as any AEs occurring in cycle 1 (unless considered unrelated to the study drug) with the following characteristics:
2. Nonfebrile grade 4 neutropenia (absolute neutrophil count [ANC] <0.5 ×
If myeloid growth factors are used, the event will be considered as DLT irrespective of the duration. […]
temperature of ≥38°C for ≥1 hour.
4. Grade 4 thrombocytopenia lasting ≥7 consecutive days. A platelet count <10
5. Grade 3 thrombocytopenia lasting longer than 14 days or accompanied by grade 2 bleeding or requiring transfusion.
6. Delay in the initiation of cycle 2 by ≥14 days due to a lack of adequate recovery of treatment-related hematological or nonhematologic toxicities.
7. Grade ≥3 nonhematologic toxicity with the following exceptions:
• Grade 3 arthralgia/myalgia that responds to nonsteroidal anti-inflammatory […]
• Grade 3 fatigue lasting fewer than 7 days.
• Grade 3 endocrine disorder that is managed with or without therapy and the patient is asymptomatic.
• Grade 3 or 4 inflammatory reaction attributed to a local antitumor […]
• Grade 3 infusion-related actions that resolves within 6 hours with appropriate clinical management.
• Grade 3 cytokine release syndrome that resolves to grade ≤1 in less than 7 days without end-organ damage.
• Asymptomatic laboratory changes (other than renal and hepatic laboratory values) that can be successfully supplemented (reversion of grade 4

For `Cc1sc(C(=O)c2cncnc2N[C@@H]2C[C@H](COS(N)(=O)=O)[C@@H](O)C2)cc1[C@@H]1NCCc2ccc(Cl)cc21` [subasumstat], the “Dose from which IFNI gene signature and plasma CXCL-10 (IP-10) were upregulated” value in the data set on IFNI pathway (both dosing schedules, phase I, dose-dependent) is listed as not below 40 mg. Also, the “Recovery of IFNI gene signature and IP-10” value with IFNI pathway (both markers) was “returned to baseline levels before dose on C1D8”. For the same compound, the “Time to increase of IP-10 plasma concentration after end of infusion” value in the data set on IFNI pathway (plasma) was not above 24 h. The “n with DLTs during cycle 1” value in data set [1] (60 mg BIW) is given as 1; in data set [1] (90 mg BIW) it was 1; in data set [1] (120 mg BIW), 2. Also, the “Description of DLT” value in data set [1] (60 mg BIW, subasumstat reduced to 40 mg BIW) is “Transient grade 3 ALT/AST”; in data set [1] (90 mg BIW, study treatment discontinued) it was “Grade 3 pneumonitis”; in data set [1] (120 mg BIW, n = 1 each) it was “Grade 3 stomatitis; also recorded: Grade 3 cognitive disorder”. Also, the “Biologically / pharmacodynamically active dose” value in data set [1] (across a range of pharmacodynamic measures) was not below 60 mg. The “Patients reporting DLTs” value in data set [1] (phase I, 74 of 84 DLT-evaluable, all in twice weekly cohorts) was “four”. In data set [1] (twice weekly (days 1, 4, 8, 11 of 21-day cycle), intravenous), this compound gave an MTD of 120 mg. For the same compound, the “Recommended phase II dose (RP2D)” value in data set [1] (twice weekly, intravenous) was 90 mg.

Values taken from paper PMC12627933, “A First-In-Human Study of the SUMOylation Inhibitor Subasumstat in Patients with Advanced/Metastatic Solid Tumors or Relapsed/Refractory Hematologic Malignancies” (Cancer Research Communications, 2025).
